The nature of data set [1]: in vitro. The protocol: For the antiviral assay, 40 μL of 1× test concentration of 3-fold serially diluted compound in culture medium with 10% FBS was added to each well of a 384-well plate (10 concentrations) in quadruplicate. MT-4 cells were next mixed with HIV-IIIb at an m.o.i of 0.003 for 1 hour, after which time 35 μL of virus/cell mixture (2000 cells) was immediately added to each well containing 40 μL of diluted compound. The plates were then incubated at 37° C. for 5 days. After 5 days of incubation, 25 μl of 2× concentrated CellTiter-Glo™ Reagent (catalog #G7571, Promega Biosciences, Inc., Madison, Wis.) was added to each well containing MT-4 cells. Cell lysis was carried out by incubating at room temperature for 10 min and then chemiluminescence was read.
Test B: Cytotoxicity Assay
Compound cytotoxicity and the corresponding CC50 values was determined using the same protocol as described in the antiviral assay (Test A) except that uninfected cells were used.

For data set [2], the system named is HIV-IIIb. The data set can be described thus: Test A: Antiviral assay in MT4 cells. It counts as cell-based, HIV-1. The conditions noted are these: MT-4 cells infected with HIV-IIIb, 5 days, CellTiter-Glo; for % inhibition at 2 μM: percent inhibition of virus-induced cell killing, from dose response curve at 2 uM drug; for inhibition at 2 µM: Human immunodeficiency virus 1, IIIB, MT4, 120 h, read-out: % inhibition at 2 μM, percent inhibition of virus-induced cell killing, from dose response curve at 2 uM drug. A general note: ATP-based viability assays read luminescence as a measure of living cells.

The mark [3] stands for this setting: human, uninfected MT-4 cells, CC50 (nM), same protocol as Test A, CellTiter-Glo.

In the case of `O=C(N[C@@H](Cc1cc(F)cc(F)c1)c1ncccc1-c1ccc(Cl)cc1)C(c1c[nH]c2ccc(F)cc12)C(F)(F)F` (single isomer, unassigned) [Example 36F], the cytotoxic concentration (CC50) (as a rule, the concentration that lowers cell viability or growth by half) at 5 days in data set [1] (setting [3]) turned out to be 7200 nM. Also, the % inhibition (usually the change of the read-out against control, counted positive when it falls) at 2 μM in data set [2] is on record as 15%.

Regarding `NC(=O)c1cc(-c2cccnc2[C@H](Cc2cc(F)cc(F)c2)NC(=O)Cn2nc(C(F)F)c3c2CC2CC32)ccc1F` (single isomer, unassigned) [Example 248], half-maximal cytotoxicity in data set [1] (setting [3]) (CC50 at 5 days) was put at 26500 nM. Further, the inhibition (as a rule, the drop in the measured response relative to a control, in per cent) at 2 µM in data set [2] is 88%. Consider `O=C(Cn1nc(C(F)F)c2c1C1CC1CC2)NC(Cc1cc(F)cc(F)c1)c1ncncc1-c1cnc2[nH]ccc2c1` (single isomer, unassigned) [Example 329], for which, in data set [1] (setting [3]), the half-maximal cytotoxic concentration (CC50) at 5 days stood at 14700 nM. For the same compound, the “% inhibition at 2 μM” value in data set [2] is reported as 99%. In data set [1] (human, CC50 (nM), uninfected MT-4 cells, same protocol as Test A, CellTiter-Glo), `CC(C)(CC(=O)N[C@@H](Cc1cc(F)cc(F)c1)c1ncccc1-c1ccc(F)c(C(N)=O)c1)n1ccc(C(F)(F)F)n1` (single isomer, unassigned) [Example 478E] showed a CC50 at 5 days of 21500 nM. The inhibition at 2 µM in data set [2] was determined as 0%. As for `CC(C)C(C(=O)N[C@@H](Cc1cc(F)cc(F)c1)c1ncccc1-c1ccc(F)c(C(N)=O)c1)n1ccc(C(F)(F)F)n1` (single isomer, unassigned) [Example 479], the CC50 at 5 days in data set [1] (setting [3]) is 26400 nM. Besides, the inhibition at 2 µM in data set [2] worked out at 2%. `CCC(C(=O)N[C@@H](Cc1cc(F)cc(F)c1)c1ncccc1-c1ccc(F)c(C(N)=O)c1)n1nc(C(F)F)cc1C(F)F` (single isomer, unassigned) [Example 483D] showed a CC50 at 5 days in data set [1] (setting [3]) of 26200 nM. The inhibition at 2 µM in data set [2] was 19%. In the same order, the values of `CCCCC(C(=O)N[C@@H](Cc1cc(F)cc(F)c1)c1ncccc1-c1ccc(F)c(C(N)=O)c1)n1ccc(C(F)(F)F)n1` (single isomer, unassigned) [Example 487C] are 9710 nM and 10%. On to `CN(C)C(C(=O)N[C@@H](Cc1cc(F)cc(F)c1)c1ncccc1-c1ccc(F)c(C(N)=O)c1)c1ccc(F)cc1` (single isomer, unassigned) [Example 503], for which the CC50 at 5 days in data set [1] (setting [3]) was found to be 40400 nM. Besides, the “% inhibition at 2 μM” value in data set [2] is on record as 3%. In the same order, the values of `NC(=O)c1cc(-c2cccnc2[C@H](Cc2cc(F)cc(F)c2)NC(=O)C(c2ccccc2)C2CCCC2)ccc1F` (single isomer, unassigned) [Example 515] are 9460 nM and 0%.

`Cc1cc2ncn(C(CC(F)(F)F)C(=O)N[C@@H](Cc3cc(F)cc(F)c3)c3ncccc3-c3ccc(F)c(C(N)=O)c3)c2cc1C` (single isomer, unassigned) [Example 540E] yielded a cytotoxic concentration (CC50) at 5 days in data set [1] (setting [3]) of over 53200 nM. Besides, the “% inhibition at 2 μM” value in data set [2] was −4%. Turning to `CCC(C(=O)N[C@@H](Cc1cc(F)cc(F)c1)c1ncccc1-c1ccc(F)c(C(N)=O)c1)n1ccnc1C(C)C` (single isomer, unassigned) [Example 558B], the CC50 at 5 days in data set [1] (setting [3]) was over 53200 nM. Besides, the “% inhibition at 2 μM” value in data set [2] is recorded as 3%. In the same order, the values of `CCC(C(=O)N[C@@H](Cc1cc(F)cc(F)c1)c1ncccc1-c1ccc(F)c(C(N)=O)c1)n1cc(C(F)(F)F)cn1` (single isomer, unassigned) [Example 565] are 37600 nM and 0%. `CCC(C(=O)N[C@@H](Cc1cc(F)cc(F)c1)c1ncccc1-c1ccc(F)c(C(N)=O)c1)n1ccc(C(F)(F)F)n1` (single isomer, unassigned) [Example 572B] returned a CC50 at 5 days in data set [1] (setting [3]) of 36700 nM. Also, in data set [2], the inhibition at 2 µM came to 11%. `CC(C)CC(C(=O)N[C@@H](Cc1cc(F)cc(F)c1)c1ncccc1-c1ccc(F)c(C(N)=O)c1)n1ccc(C(F)(F)F)n1` (single isomer, unassigned) [Example 581D]: the CC50 at 5 days in data set [1] (setting [3]) worked out at 10600 nM. The inhibition at 2 µM in data set [2] was determined as 6%. `O=C(Cc1c[nH]c2ccc(O)nc12)N[C@@H](Cc1cc(F)cc(F)c1)c1nccnc1-c1ccc(Cl)cc1` (stereo in doubt) [Example 476, N-(1-(3-(4-chlorophenyl)pyrazin-2-yl)-2-(3,5-difluorophenyl)ethyl)-2-(5-hydroxy-1H-pyrrolo[3,2-b]pyridin-3-yl)acetamide] displayed a 50% cytotoxic concentration (CC50) at 5 days in data set [1] (setting [3]) of 53200 nM. For the same compound, the inhibition at 2 µM in data set [2] stood at 30%. For `Cc1ccccc1-c1cccnc1C(Cc1ccccc1)NC(=O)Cn1nc(C(F)(F)F)c2c1CCCC2` (stereo not drawn) [Example 2, N-(2-phenyl-1-(3-(o-tolyl)pyridin-2-yl)ethyl)-2-(3-(trifluoromethyl)-4,5,6,7-tetrahydro-1H-indazol-1-yl)acetamide], in data set [1] (setting [3]), the CC50 at 5 days turned out to be 14000 nM. The inhibition at 2 µM in data set [2] was 29%. As for `Cc1ccccc1-c1cccnc1C(Cc1cc(F)cc(F)c1)NC(=O)Cc1c[nH]c2ccc(O)cc12` (stereo not drawn) [Example 3, N-(2-(3,5-difluorophenyl)-1-(3-o-tolylpyridin-2-yl)ethyl)-2-(5-hydroxy-1H-indol-3-yl)acetamide], in data set [1] (setting [3]), the midpoint of cytotoxicity, the CC50 at 5 days, lay at 21900 nM. For the same compound, the inhibition at 2 µM in data set [2] was 40%.

The compound `Cc1ccccc1-c1cccnc1C(Cc1cc(F)cc(F)c1)NC(=O)Cn1nc(C(F)(F)F)c2c1CCCC2` (stereo not drawn) [Example 4, N-(2-(3,5-difluorophenyl)-1-(3-o-tolylpyridin-2-yl)ethyl)-2-(3-(trifluoromethyl)-4,5,6,7-tetrahydro-1H-indazol-1-yl)acetamide] showed a CC50 at 5 days in data set [1] (setting [3]) of 10300 nM. Moreover, the inhibition at 2 µM in data set [2] came out at 69%. In the case of `COc1ccc(-c2cccnc2C(Cc2cc(F)cc(F)c2)NC(=O)Cc2c[nH]c3ccc(O)cc23)c(C)c1` (stereo not drawn) [Example 5, N-(2-(3,5-difluorophenyl)-1-(3-(4-methoxy-2-methylphenyl)pyridin-2-yl)ethyl)-2-(5-hydroxy-1H-indol-3-yl)acetamide], half-maximal cytotoxicity in data set [1] (setting [3]) (CC50 at 5 days) was put at 32700 nM. The inhibition at 2 µM in data set [2] came to 76%. `COc1ccc(-c2cccnc2C(Cc2cc(F)cc(F)c2)NC(=O)Cn2nc(C(F)(F)F)c3c2CCCC3)c(C)c1` (stereo not drawn) [Example 6, N-(2-(3,5-difluorophenyl)-1-(3-(4-methoxy-2-methylphenyl)pyridin-2-yl)ethyl)-2-(3-(trifluoromethyl)-4,5,6,7-tetrahydro-1H-indazol-1-yl)acetamide] had a CC50 at 5 days in data set [1] (setting [3]) of 11400 nM. Moreover, the inhibition at 2 µM in data set [2] was 45%.

`COc1cc(C)c(-c2cccnc2C(Cc2cc(F)cc(F)c2)NC(=O)Cc2c[nH]c3ccc(O)cc23)c(C)c1` (stereo not drawn) [Example 7, N-(2-(3,5-difluorophenyl)-1-(3-(4-methoxy-2,6-dimethylphenyl)pyridin-2-yl)ethyl)-2-(5-hydroxy-1H-indol-3-yl)acetamide] showed a cytotoxic concentration (CC50) at 5 days in data set [1] (setting [3]) of 17600 nM. The inhibition at 2 µM in data set [2] was found to be 18%. In data set [1] (setting [3]), `COc1cc(C)c(-c2cccnc2C(Cc2cc(F)cc(F)c2)NC(=O)Cn2nc(C(F)(F)F)c3c2CCCC3)c(C)c1` (stereo not drawn) [Example 8, N-(2-(3,5-difluorophenyl)-1-(3-(4-methoxy-2,6-dimethylphenyl)pyridin-2-yl)ethyl)-2-(3-(trifluoromethyl)-4,5,6,7-tetrahydro-1H-indazol-1-yl)acetamide] yielded a cytotoxic concentration (CC50) at 5 days of 15700 nM. For the same compound, the inhibition at 2 µM in data set [2] was found to be 20%. In the same order, the values of `Cc1ccccc1-c1ccnc(C(Cc2ccccc2)NC(=O)Cc2c[nH]c3ccc(O)cc23)n1` (stereo not drawn) [Example 9E, 2-(5-hydroxy-1H-indol-3-yl)-N-(2-phenyl-1-(4-o-tolylpyrimidin-2-yl)ethyl)acetamide] are 35900 nM and 0%. `Cc1ccccc1-c1ccnc(C(Cc2ccccc2)NC(=O)Cn2nc(C(F)(F)F)c3c2CCCC3)n1` (stereo not drawn) [Example 10, N-(2-phenyl-1-(4-o-tolylpyrimidin-2-yl)ethyl)-2-(3-(trifluoromethyl)-4,5,6,7-tetrahydro-1H-indazol-1-yl)acetamide] yielded a CC50 at 5 days in data set [1] (setting [3]) of 13000 nM. The inhibition at 2 µM in data set [2] is 0%. In the case of `Cc1ccccc1-c1ccnc(C(Cc2cc(F)cc(F)c2)NC(=O)Cc2c[nH]c3ccc(O)cc23)n1` (stereo not drawn) [Example 11, N-(2-(3,5-difluorophenyl)-1-(4-o-tolylpyrimidin-2-yl)ethyl)-2-(5-hydroxy-1H-indol-3-yl)acetamide], in data set [1] (setting [3]), half-maximal cytotoxicity (CC50 at 5 days) was put at 35700 nM. Further, the inhibition at 2 µM in data set [2] worked out at 0%.

On to `Cc1ccccc1-c1ccnc(C(Cc2cc(F)cc(F)c2)NC(=O)Cn2nc(C(F)(F)F)c3c2CCCC3)n1` (stereo not drawn) [Example 12, N-(2-(3,5-difluorophenyl)-1-(4-o-tolylpyrimidin-2-yl)ethyl)-2-(3-(trifluoromethyl)-4,5,6,7-tetrahydro-1H-indazol-1-yl)acetamide], for which it took 8980 nM to reach half-maximal cytotoxicity in data set [1] (setting [3]) (CC50 at 5 days). Also, in data set [2], the inhibition at 2 µM was 0%. With `NC(=O)c1cc(-c2cccnc2[C@H](Cc2cc(F)cc(F)c2)NC(=O)Cn2nc(C(F)F)c(C3CC3)c2C(F)F)ccc1F` [Example 562, (S)-5-(2-(1-(2-(4-cyclopropyl-3,5-bis(difluoromethyl)-1H-pyrazol-1-yl)acetamido)-2-(3,5-difluorophenyl)ethyl)pyridin-3-yl)-2-fluorobenzamide], the inhibition at 2 µM in data set [2] came to 42%. For `NC(=O)c1cc(-c2cccnc2[C@H](Cc2cc(F)cc(F)c2)NC(=O)Cn2nc(C(F)(F)F)c3c2CCCC3)ccc1F` [Example 589, (S)-5-(2-(2-(3,5-difluorophenyl)-1-(2-(3-(trifluoromethyl)-4,5,6,7-tetrahydro-1H-indazol-1-yl)acetamido)ethyl)pyridin-3-yl)-2-fluorobenzamide], the inhibition at 2 µM in data set [2] is 106%.

The record behind these values is patent US9540343B2 (Gilead Sciences, Inc., priority 2011, dated 2017).
